The target in assay [1] is GDP-bound KRAS wild-type protein (Homo sapiens, UniProt P01116). Put plainly: Binding to KRAS by surface plasmon resonance (SPR), dissociation constant KD. Conditions: Single Cycle Kinetics, 1:1 binding model. An outline of the steps:
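Running buffer contained 10 µM GDP and 10 mM MgCl2 to keep RAS in the GDP state, with 4% DMSO at pH 7.4. Compounds were flowed at 100 µL/min in 75 s steps of rising concentration over captured biotin-Avi RAS at 30°C. Sensorgrams were fitted 1:1 for KD.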

In assay [2] the target is GDP-bound NRAS wild-type protein (Homo sapiens, UniProt P01111). Put plainly: Binding to NRAS by surface plasmon resonance (SPR), KD and KD ratio to KRAS. The conditions noted are these: ratio of KD with respect to GDP-bound NRAS wild-type protein to KD with respect to KRAS. An outline of the steps:
(§1)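 Compound binding is evaluated by SPR single-cycle kinetics, with concentrations added intermittently from low to high for 75 s each. Target surfaces carry GDP-loaded biotinylated Avi-RAS at about 100–300 RU, regenerated after each cycle; temperature 30°C. A 1:1 binding model gives KD.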

The target in the next assay is HRAS wild-type protein (Homo sapiens, UniProt P01112). Put plainly: Binding to HRAS by surface plasmon resonance (SPR), KD and KD ratio to KRAS. The conditions noted are these: ratio of KD with respect to HRAS wild-type protein to KD with respect to KRAS. An outline of the steps: as §1
Assay [3] concerns human lung cancer strain NCI-H441. Put plainly: NCI-H441 cell proliferation inhibitory activity (CellTiter-Glo, 4 days). Conditions: 50% proliferation inhibitory concentration, four days, read-out: NCl-H441 IC50. It counts as cell-based. Put shortly:
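Proliferation was scored by […] measured after the reagent was added to cultures kept at 37°C in 5% carbon dioxide.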

Sequence of GDP-bound KRAS wild-type protein (P01116 1-188 isoform P01116-2): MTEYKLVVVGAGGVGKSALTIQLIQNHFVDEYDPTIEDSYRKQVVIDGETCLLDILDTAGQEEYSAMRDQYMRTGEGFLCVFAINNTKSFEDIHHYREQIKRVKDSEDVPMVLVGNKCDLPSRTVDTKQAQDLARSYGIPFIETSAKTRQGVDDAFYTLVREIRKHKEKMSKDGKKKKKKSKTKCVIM
Sequence of HRAS wild-type protein (P01112 whole entry): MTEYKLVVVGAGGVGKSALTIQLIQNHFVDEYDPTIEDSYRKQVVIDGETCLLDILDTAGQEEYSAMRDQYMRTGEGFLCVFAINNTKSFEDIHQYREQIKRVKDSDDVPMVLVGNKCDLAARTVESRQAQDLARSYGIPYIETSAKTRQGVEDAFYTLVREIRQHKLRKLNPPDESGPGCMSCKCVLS
Sequence of GDP-bound NRAS wild-type protein (P01111 whole entry): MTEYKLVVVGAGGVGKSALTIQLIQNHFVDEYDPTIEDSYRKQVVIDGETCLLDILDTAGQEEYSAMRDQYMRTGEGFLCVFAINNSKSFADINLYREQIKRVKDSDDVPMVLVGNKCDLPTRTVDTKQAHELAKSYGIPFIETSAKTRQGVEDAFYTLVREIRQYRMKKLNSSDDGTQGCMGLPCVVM

Consider `CCO[C@@H]1C[C@H]2C(=O)NC3(CCCC3)C(=O)N(C)[C@@H](C(CC)CC)C(=O)N(C)[C@H](C(=O)N3CCCC3)CC(=O)N(C)[C@@H](C)C(=O)N[C@@H]([C@@H](C)CC)C(=O)N(C)CC(=O)N(C)[C@H]3C/C=C\CCN(C3=O)[C@@H](CC3CCCCC3)C(=O)N(C)CC(=O)N[C@@H](CCc3cc(F)c(C(F)(F)F)c(F)c3)C(=O)N2C1` [PP1435], for which the Kd in assay [1] turned out to be 1.1 nM. Further, the “NRAS /KRAS” value in assay [2] was “A (a compound having 10 or more and less than 20 is denoted as A)”. On HRAS wild-type protein, the “HRAS /KRAS” value was “A (a compound having 10 or more and less than 20 is denoted as A)”. Also, the IC50 in assay [3] amounted to 178 nM.

The compound `CCO[C@@H]1C[C@H]2C(=O)NC3(CCC3)C(=O)N(C)[C@@H](C(CC)CC)C(=O)N(C)[C@H](C(=O)N3CCCC3)CC(=O)N(C)[C@@H](C)C(=O)N[C@@H]([C@@H](C)CC)C(=O)N(C)CC(=O)N(C)[C@H]3C/C=C\CCN(C3=O)[C@@H](CC3CCC(F)(F)CC3)C(=O)N(C)CC(=O)N[C@@H](CCc3cc(F)c(C(F)(F)F)c(F)c3)C(=O)N2C1` [PP1436] had a Kd in assay [1] of 0.29 nM. Moreover, the “NRAS /KRAS” value in assay [2] is on record as “AA (a compound having 20 or more is denoted as AA)”. Also, at HRAS wild-type protein, the “HRAS /KRAS” value is “A (a compound having 10 or more and less than 20 is denoted as A)”. Besides, the IC50 in assay [3] came out at 47.4 nM.

Compound `CCO[C@@H]1C[C@H]2C(=O)NC3(CCC3)C(=O)N(C)[C@@H](C(CC)CC)C(=O)N(C)[C@H](C(=O)N3CCCC3)CC(=O)N(C)[C@@H](COC)C(=O)N[C@@H]([C@@H](C)CC)C(=O)N(C)CC(=O)N(C)[C@H]3C/C=C\CCN(C3=O)[C@@H](CC3CCCCC3)C(=O)N(C)CC(=O)N[C@@H](CCc3cc(F)c(C(F)(F)F)c(F)c3)C(=O)N2C1` [PP1438] showed a Kd in assay [1] of 0.55 nM. Besides, the “NRAS /KRAS” value in assay [2] is “AA (a compound having 20 or more is denoted as AA)”. Moreover, the “HRAS /KRAS” value on HRAS wild-type protein was “A (a compound having 10 or more and less than 20 is denoted as A)”. Moreover, the IC50 in assay [3] amounted to 89.4 nM.

In assay [1], `CCO[C@@H]1C[C@H]2C(=O)NC3(CCC3)C(=O)N(C)[C@@H](C(CC)CC)C(=O)N(C)[C@H](C(=O)N3CCCC3)CC(=O)N(C)[C@@H](COC)C(=O)N[C@@H]([C@@H](C)CC)C(=O)N(C)CC(=O)N(C)[C@H]3C/C=C\CCN(C3=O)[C@@H](CC3CCC(F)(F)CC3)C(=O)N(C)CC(=O)N[C@@H](CCc3cc(F)c(C(F)(F)F)c(F)c3)C(=O)N2C1` [PP1440] returned a Kd of 0.35 nM. For the same compound, the “NRAS /KRAS” value in assay [2] is on record as “AA (a compound having 20 or more is denoted as AA)”. On HRAS wild-type protein, the “HRAS /KRAS” value is “A (a compound having 10 or more and less than 20 is denoted as A)”. In addition, the IC50 in assay [3] was found to be 69.7 nM.

Regarding `CCO[C@@H]1C[C@H]2C(=O)NC3(CCCC3)C(=O)N(C)[C@@H](C(CC)CC)C(=O)N(C)[C@H](C(=O)N3CCCC3)CC(=O)N(C)[C@@H](COC)C(=O)N[C@@H]([C@@H](C)CC)C(=O)N(C)CC(=O)N(C)[C@H]3C/C=C\CCN(C3=O)[C@@H](CC3CCC(F)(F)CC3)C(=O)N(C)CC(=O)N[C@@H](CCc3cc(F)c(C(F)(F)F)c(F)c3)C(=O)N2C1` [PP1441], in assay [1], the affinity, expressed as Kd, was 0.7 nM. Also, the “NRAS /KRAS” value in assay [2] was “A (a compound having 10 or more and less than 20 is denoted as A)”. Moreover, the “HRAS /KRAS” value on HRAS wild-type protein was “A (a compound having 10 or more and less than 20 is denoted as A)”. In assay [3], the IC50 came to 87.6 nM.

`CCO[C@@H]1C[C@H]2C(=O)NC3(CCC3)C(=O)N(C)[C@@H](C3CCCC3)C(=O)N(C)[C@H](C(=O)N3CCCC3)CC(=O)N(C)[C@@H](CC)C(=O)N[C@@H]([C@@H](C)CC)C(=O)N(C)CC(=O)N(C)[C@H]3C/C=C\CCN(C3=O)[C@@H](CC3CCC(F)(F)CC3)C(=O)N(C)CC(=O)N[C@@H](CCc3cc(F)c(C(F)(F)F)c(F)c3)C(=O)N2C1` [PP1442] registered a Kd in assay [1] of 0.13 nM. Also, the “NRAS /KRAS” value in assay [2] is “A (a compound having 10 or more and less than 20 is denoted as A)”. Besides, the “HRAS /KRAS” value on HRAS wild-type protein is “A (a compound having 10 or more and less than 20 is denoted as A)”. Further, in assay [3], the IC50 was 48.3 nM.

For the compound `CCO[C@@H]1C[C@H]2C(=O)NC3(CCC3)C(=O)N(C)[C@@H](C3CCCC3)C(=O)N(C)[C@H](C(=O)N3CCCC3)CC(=O)N(C)[C@@H](CC)C(=O)N[C@@H]([C@@H](C)CC)C(=O)N(C)CC(=O)N(C)[C@H]3C/C=C\CCN(C3=O)[C@@H](CC3CCCCC3)C(=O)N(C)CC(=O)N[C@@H](CCc3cc(F)c(C(F)(F)F)c(F)c3)C(=O)N2C1` [PP1443], in assay [1], the Kd came out at 0.15 nM. Also, the “NRAS /KRAS” value in assay [2] was “AA (a compound having 20 or more is denoted as AA)”. The “HRAS /KRAS” value on HRAS wild-type protein is “A (a compound having 10 or more and less than 20 is denoted as A)”. Further, the concentration for half-maximal inhibition (IC50) in assay [3] came out at 34.8 nM.

In assay [1], `CCO[C@@H]1C[C@H]2C(=O)NC3(CCC3)C(=O)N(C)[C@@H](C3CCCC3)C(=O)N(C)[C@H](C(=O)N3CCC3)CC(=O)N(C)[C@@H](CC)C(=O)N[C@@H]([C@@H](C)CC)C(=O)N(C)CC(=O)N(C)[C@H]3C/C=C\CCN(C3=O)[C@@H](CC3CCC(F)(F)CC3)C(=O)N(C)CC(=O)N[C@@H](CCc3cc(F)c(C(F)(F)F)c(F)c3)C(=O)N2C1` [PP1444] gave an equilibrium dissociation constant (Kd) of 0.19 nM. Also, the “NRAS /KRAS” value in assay [2] was “A (a compound having 10 or more and less than 20 is denoted as A)”. The “HRAS /KRAS” value on HRAS wild-type protein is “A (a compound having 10 or more and less than 20 is denoted as A)”. The IC50 in assay [3] worked out at 103 nM.

The compound `CCO[C@@H]1C[C@H]2C(=O)NC3(CCC3)C(=O)N(C)[C@@H](C3CCCC3)C(=O)N(C)[C@H](C(=O)N3CCC3)CC(=O)N(C)[C@@H](CC)C(=O)N[C@@H]([C@@H](C)CC)C(=O)N(C)CC(=O)N(C)[C@H]3C/C=C\CCN(C3=O)[C@@H](CC3CCCCC3)C(=O)N(C)CC(=O)N[C@@H](CCc3cc(F)c(C(F)(F)F)c(F)c3)C(=O)N2C1` [PP1445] returned a Kd in assay [1] of 0.27 nM. Also, the “NRAS /KRAS” value in assay [2] was “A (a compound having 10 or more and less than 20 is denoted as A)”. Moreover, the “HRAS /KRAS” value on HRAS wild-type protein was “A (a compound having 10 or more and less than 20 is denoted as A)”. Besides, the IC50 in assay [3] was 92.8 nM.

Compound `CCO[C@@H]1C[C@H]2C(=O)NC3(CCC3)C(=O)N(C)[C@@H](C3CCCC3)C(=O)N(C)[C@H](C(=O)N(C)C)CC(=O)N(C)[C@@H](CC3CC3)C(=O)N[C@@H]([C@@H](C)CC)C(=O)N(C)CC(=O)N(C)[C@H]3C/C=C\CCN(C3=O)[C@@H](CC3CCCCC3)C(=O)N(C)CC(=O)N[C@@H](CCc3cc(F)c(C(F)(F)F)c(F)c3)C(=O)N2C1` [PP1446] showed a Kd in assay [1] of 0.2 nM. In assay [2], the “NRAS /KRAS” value was “A (a compound having 10 or more and less than 20 is denoted as A)”. Also, the “HRAS /KRAS” value on HRAS wild-type protein was “A (a compound having 10 or more and less than 20 is denoted as A)”. Also, in assay [3], the IC50 stood at 32 nM.

`CCO[C@@H]1C[C@H]2C(=O)NC3(CCC3)C(=O)N(C)[C@@H](C3CCCC3)C(=O)N(C)[C@H](C(=O)N(C)C)CC(=O)N(C)[C@@H](CC3CC3)C(=O)N[C@@H]([C@@H](C)CC)C(=O)N(C)CC(=O)N(C)[C@H]3C/C=C\CCN(C3=O)[C@@H](CC3CCC(F)(F)CC3)C(=O)N(C)CC(=O)N[C@@H](CCc3cc(F)c(C(F)(F)F)c(F)c3)C(=O)N2C1` [PP1447] came in with a dissociation constant Kd in assay [1] of 0.12 nM. Moreover, the “NRAS /KRAS” value in assay [2] is “A (a compound having 10 or more and less than 20 is denoted as A)”. Further, at HRAS wild-type protein, the “HRAS /KRAS” value is “A (a compound having 10 or more and less than 20 is denoted as A)”. Also, the IC50 in assay [3] stood at 28.9 nM.

For `C=CC[C@H]1C(=O)N[C@@H]([C@@H](C)CC)C(=O)N(C)CC(=O)N(C)[C@H]2C/C=C\CCN(C2=O)[C@@H](CC2CCC(F)(F)CC2)C(=O)N(C)CC(=O)N[C@@H](CCc2cc(F)c(C(F)(F)F)c(F)c2)C(=O)N2C[C@H](OCC)C[C@H]2C(=O)NC2(CCC2)C(=O)N(C)[C@@H](C2CCCC2)C(=O)N(C)[C@H](C(=O)N(C)C)CC(=O)N1C` [PP1454], in assay [1], the Kd worked out at 0.096 nM. Besides, in assay [2], the “NRAS /KRAS” value was “A (a compound having 10 or more and less than 20 is denoted as A)”. In addition, the “HRAS /KRAS” value on HRAS wild-type protein was “A (a compound having 10 or more and less than 20 is denoted as A)”. The IC50 in assay [3] was 15.2 nM.

For `CCO[C@@H]1C[C@H]2C(=O)NC3(CCCC3)C(=O)N(C)[C@@H](C3CCCC3)C(=O)N(C)[C@H](C(=O)N(C)C)CC(=O)N(C)[C@@H](C)C(=O)N[C@@H]([C@@H](C)CC)C(=O)N(C)CC(=O)N(C)[C@H]3C/C=C\CCN(C3=O)[C@@H](CC3CCC(F)(F)CC3)C(=O)N(C)CC(=O)N[C@@H](CCc3cc(F)c(C(F)(F)F)c(F)c3)C(=O)N2C1` [PP1456], in assay [1], the affinity, expressed as Kd, was 0.12 nM. Besides, in assay [2], the “NRAS /KRAS” value is “A (a compound having 10 or more and less than 20 is denoted as A)”. The “HRAS /KRAS” value on HRAS wild-type protein is “A (a compound having 10 or more and less than 20 is denoted as A)”. The IC50 in assay [3] amounted to 90 nM.

`CC[C@H](C)[C@@H]1NC(=O)[C@H](CC)N(C)C(=O)C[C@@H](C(=O)N(C)C)N(C)C(=O)[C@H](C2CCCC2)N(C)C(=O)C2(CCC2)NC(=O)[C@@H]2C[C@H](C)CN2C(=O)[C@H](CCc2cc(F)c(C(F)(F)F)c(F)c2)NC(=O)CN(C)C(=O)[C@H](CC2CCC(F)(F)CC2)N2CC/C=C\C[C@@H](C2=O)N(C)C(=O)CN(C)C1=O` [PP1457] returned a Kd in assay [1] of 0.15 nM. Also, the “NRAS /KRAS” value in assay [2] is “A (a compound having 10 or more and less than 20 is denoted as A)”. Moreover, the “HRAS /KRAS” value at HRAS wild-type protein was “A (a compound having 10 or more and less than 20 is denoted as A)”. Also, the IC50 in assay [3] was found to be 30.4 nM.
